Biological target: T1, membrane ATP synthase (Homo sapiens, UniProt P06576+P25705+P36542)
T1 construct: Measurement of the effect of OPFP1 on the production of extracellular ATP in the SH-SY5Y cell line; endogenous in cells; host or cells: SH-SY5Y human neuroblastoma cells
Assay: Production of extracellular ATP in SH-SY5Y cell line
Type: cell-based
Conditions: after 5′ pre-incubation, OPFP1 mixture 10 μg/ml, piceatannol 4 μM, read-out: maximum inhibition of ATP synthesis
Procedure: FIG. 6. Production of extracellular ATP. Measurement of the effect of OPFP1 on the production of extracellular ATP in the SH-SY5Y cell line. (A) analysis of the effects on ATP production at different pre-incubation times; (B) evaluation of the effects elicited by different concentrations of the OPFP1 mixture (results are the mean of three independent experiments).
The mixture not only binds this enzyme complex but also modulates its activity. As positive control, piceatannol (3,4,3′,5′-tetrahydroxy-trans-stilbene) was used, that is a resveratrol metabolite well-known for its inhibitory activity on the production of extracellular ATP.

inhibition at 4 µM: 97%
SMILES: Oc1cc(O)cc(/C=C/c2ccc(O)c(O)c2)c1 [piceatannol, 3,4,3′,5′-tetrahydroxy-trans-stilbene]

Source: patent US20110311562A1, “Glycolipid Mixture with Anti-Inflammatory Activity Obtained from Oscillatoria Planktothrix” (priority 2009, published 2011)
